Results from patent US20260248772A1, “NOVEL SULFANONE DERIVATIVE OR PHARMACEUTICALLY ACCEPTABLE SALT THEREOF, AND USE THEREOF” (KOREA INSTITUTE OF SCIENCE AND TECHNOLOGY, priority 2022, published 2026).
Counter-ions that a name gives are not always drawn.

Legend:
[1] = system: BV-2 mouse microglial cells; experiment: NO (nitric oxide) inhibitory activity in LPS-treated microglial cells; format: cell-based; conditions: LPS 1 μg/ml, 24 hours, read-out: Amount of NO (% of control)
CYP2C19 = CYP2C19 (Homo sapiens, UniProt P33261); experiment: in vitro; conditions: human liver microsomes, pH 7.4, probe S-mephenytoin 100 μM (in five-substrate cocktail)
Chain of CYP2C19 (P33261 whole entry): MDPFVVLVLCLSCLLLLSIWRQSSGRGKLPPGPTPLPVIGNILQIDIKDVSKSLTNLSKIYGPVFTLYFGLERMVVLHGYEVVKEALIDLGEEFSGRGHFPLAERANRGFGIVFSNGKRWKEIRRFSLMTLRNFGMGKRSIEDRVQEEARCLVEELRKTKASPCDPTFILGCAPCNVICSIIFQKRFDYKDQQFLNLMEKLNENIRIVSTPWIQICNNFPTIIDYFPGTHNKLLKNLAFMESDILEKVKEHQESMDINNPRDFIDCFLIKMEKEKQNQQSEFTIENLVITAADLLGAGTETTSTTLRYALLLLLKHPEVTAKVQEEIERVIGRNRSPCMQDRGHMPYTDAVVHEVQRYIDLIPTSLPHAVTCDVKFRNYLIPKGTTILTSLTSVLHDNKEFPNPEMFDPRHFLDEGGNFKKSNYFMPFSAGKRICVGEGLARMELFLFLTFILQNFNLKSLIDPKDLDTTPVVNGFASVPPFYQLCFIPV

CYP2D6 = CYP2D6 (Homo sapiens, UniProt P10635); experiment: in vitro; conditions: human liver microsomes, pH 7.4, probe Dextromethorphan 5 μM (in five-substrate cocktail)
Chain of CYP2D6 (P10635 whole entry): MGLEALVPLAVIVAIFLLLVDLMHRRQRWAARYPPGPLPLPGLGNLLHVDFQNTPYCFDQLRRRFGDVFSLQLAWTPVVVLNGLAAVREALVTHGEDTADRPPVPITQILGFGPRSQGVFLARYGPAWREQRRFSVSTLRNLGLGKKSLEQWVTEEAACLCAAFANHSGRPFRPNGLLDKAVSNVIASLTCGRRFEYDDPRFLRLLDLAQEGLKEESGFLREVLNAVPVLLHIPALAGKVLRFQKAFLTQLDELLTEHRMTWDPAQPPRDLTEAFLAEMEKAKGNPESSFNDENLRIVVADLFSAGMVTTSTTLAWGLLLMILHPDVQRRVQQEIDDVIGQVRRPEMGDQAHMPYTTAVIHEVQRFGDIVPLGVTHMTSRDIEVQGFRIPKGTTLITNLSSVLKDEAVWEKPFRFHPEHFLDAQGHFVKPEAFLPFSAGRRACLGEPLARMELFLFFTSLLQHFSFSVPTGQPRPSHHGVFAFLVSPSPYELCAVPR

CYP2C9 = CYP2C9 (Homo sapiens, UniProt P11712); experiment: in vitro; conditions: human liver microsomes, pH 7.4, probe Diclofenac 10 μM (in five-substrate cocktail)
Chain of CYP2C9 (P11712 whole entry): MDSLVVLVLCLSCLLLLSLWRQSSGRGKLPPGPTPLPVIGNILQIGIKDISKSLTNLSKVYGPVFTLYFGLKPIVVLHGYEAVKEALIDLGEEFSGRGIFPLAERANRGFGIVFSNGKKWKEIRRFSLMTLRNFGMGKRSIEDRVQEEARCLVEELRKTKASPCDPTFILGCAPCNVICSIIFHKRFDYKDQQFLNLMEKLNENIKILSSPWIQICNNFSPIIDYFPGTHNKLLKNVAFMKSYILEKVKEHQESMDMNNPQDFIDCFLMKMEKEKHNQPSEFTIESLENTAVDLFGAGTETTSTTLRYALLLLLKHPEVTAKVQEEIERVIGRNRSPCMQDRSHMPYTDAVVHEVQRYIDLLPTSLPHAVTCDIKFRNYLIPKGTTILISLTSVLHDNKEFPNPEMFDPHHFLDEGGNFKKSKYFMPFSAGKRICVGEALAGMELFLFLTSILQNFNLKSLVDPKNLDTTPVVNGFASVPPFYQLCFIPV

CYP1A2 = target: T1, CYP1A2 (Homo sapiens, UniProt P05177); experiment: in vitro; conditions: human liver microsomes, pH 7.4, probe Phenacetin 50 μM (in five-substrate cocktail)
T1 sequence (P05177 1-516): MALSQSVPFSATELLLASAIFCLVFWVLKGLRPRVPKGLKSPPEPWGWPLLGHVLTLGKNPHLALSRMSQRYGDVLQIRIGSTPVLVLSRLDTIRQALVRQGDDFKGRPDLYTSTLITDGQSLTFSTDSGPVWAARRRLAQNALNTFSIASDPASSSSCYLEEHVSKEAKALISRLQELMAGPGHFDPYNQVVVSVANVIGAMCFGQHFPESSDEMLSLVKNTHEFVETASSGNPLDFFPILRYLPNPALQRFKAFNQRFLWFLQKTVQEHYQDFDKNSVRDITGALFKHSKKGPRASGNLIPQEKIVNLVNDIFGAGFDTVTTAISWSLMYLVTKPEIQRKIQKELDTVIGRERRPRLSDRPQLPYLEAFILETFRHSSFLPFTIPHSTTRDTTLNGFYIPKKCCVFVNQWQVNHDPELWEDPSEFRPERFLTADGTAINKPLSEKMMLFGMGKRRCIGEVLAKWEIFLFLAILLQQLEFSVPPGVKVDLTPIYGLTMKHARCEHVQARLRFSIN

CYP3A4 = CYP3A4 (Homo sapiens, UniProt P08684); experiment: in vitro; conditions: human liver microsomes, pH 7.4, probe Midazolam […] (in five-substrate cocktail)
Chain of CYP3A4 (P08684 whole entry): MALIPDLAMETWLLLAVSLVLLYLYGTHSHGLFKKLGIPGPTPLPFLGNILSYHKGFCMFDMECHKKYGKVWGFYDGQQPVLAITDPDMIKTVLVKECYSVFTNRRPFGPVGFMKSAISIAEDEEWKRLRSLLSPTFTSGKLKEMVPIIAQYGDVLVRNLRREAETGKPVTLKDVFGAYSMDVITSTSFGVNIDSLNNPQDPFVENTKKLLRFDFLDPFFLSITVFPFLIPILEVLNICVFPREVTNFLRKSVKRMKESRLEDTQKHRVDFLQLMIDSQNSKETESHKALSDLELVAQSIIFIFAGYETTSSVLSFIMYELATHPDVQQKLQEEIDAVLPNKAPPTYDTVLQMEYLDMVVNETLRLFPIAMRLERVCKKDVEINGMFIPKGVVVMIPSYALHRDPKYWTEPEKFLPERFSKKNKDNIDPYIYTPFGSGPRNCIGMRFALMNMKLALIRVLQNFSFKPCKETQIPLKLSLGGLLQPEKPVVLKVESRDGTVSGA

[2] = Metabolic stability using liver microsomes; format: in vitro ADME, Human; conditions: for drug remaining after incubation with microsomes: after 30 minutes; for Human (% remaining): liver microsomes, 30 minutes at 37° C.
Nrf2 = Nrf2 functional cell-based assay (DiscoveRx), luminescence; conditions: U2OS cells; for EC50: 6 hours incubation, read-out: Nrf2 activation EC50
[3] = known; cited from earlier work
[4] = Metabolic stability using liver microsomes; format: in vitro ADME, Mouse; conditions: 30 minutes
[5] = Metabolic stability using liver microsomes; format: in vitro ADME, Rat; conditions: 30 minutes
Description: Therefore, in order to predict the extent of drug metabolism by the liver, the main organ for drug metabolism, through in vitro experiments, the metabolic stability of drugs was evaluated using liver microsomes.
Then, an NADPH regeneration system solution was added thereto and the mixed solution was incubated at 37° C. for 30 minutes.

Compound	activity at 10 µM [1] [%]	activity at 15 min, 10 µM (CYP2C19) [%]	activity at 15 min, 10 µM (CYP2D6) [%]	activity at 15 min, 10 µM (CYP2C9) [%]	activity at 15 min, 10 µM (CYP1A2) [%]	activity at 15 min, 10 µM (CYP3A4) [%]	further results
N=S(=O)(/C=C/c1ccccn1)c1ccccc1F (stereo not drawn) [Compound 1-1, (E)-(2-Fluorophenyl)(imino)(2-(pyridin-2-yl)vinyl)-λ^6-sulfanone]	< 3	66.9	82.7	85.7	87.8	121	activity at 0.1 µM [1]: 97%; activity at 1 µM [1]: 74.2%
COc1ccc(S(=N)(=O)/C=C/c2ccccn2)cc1 (stereo not drawn) [Compound 1-2, (E)-Imino(4-methoxyphenyl)(2-(pyridin-2-yl)vinyl)-λ^6-sulfanone]	35.8	70.4	98.6	96.6	88.9	97.5	drug remaining after incubation with microsomes [2]: remained at a high concentration; activity at 0.1 µM [1]: 110%; activity at 1 µM [1]: 115%
N=S(=O)(/C=C/c1ncccc1Cl)c1ccccc1Cl (stereo not drawn) [Compound 1-4, (E)-(2-chlorophenyl)(2-(3-chloropyridin-2-yl)vinyl)(imino)-λ^6-sulfanone]	–	–	–	–	–	–	drug remaining after incubation with microsomes [2]: remained at a high concentration
N=S(=O)(/C=C/c1ncccc1F)c1ccccc1F (stereo not drawn) [Compound 1-5, (E)-(2-fluorophenyl)(2-(3-fluoropyridin-2-yl)vinyl)(imino)-λ^6-sulfanone]	7.96	–	–	–	–	–	activity at 0.1 µM [1]: 101%; activity at 1 µM [1]: 69.2%
COc1ccccc1S(=N)(=O)/C=C/c1ncccc1Cl (stereo not drawn) [Compound 1-8, (E)-(2-(3-chloropyridin-2-yl)vinyl)(imino)(2-methoxyphenyl)-λ^6-sulfanone]	14.2	24.4	93.9	192	84.4	78.4	–
COc1ccc(S(=N)(=O)/C=C/c2ncccc2Cl)cc1 (stereo not drawn) [Compound 1-10, (E)-(2-(3-chloropyridin-2-yl)vinyl)(imino)(4-methoxyphenyl)-λ^6-sulfanone]	< 3	6	112	133	103	109	–
N=S(=O)(/C=C/c1cccnc1)c1ccccc1Cl (stereo not drawn) [Compound 1-12, (E)-(2-chlorophenyl)(imino)(2-(pyridin-3-yl)vinyl)-λ^6-sulfanone]	–	68.2	94.4	87.1	86.8	104	EC50 (Nrf2): > 10000 nM
N=S(=O)(/C=C/c1cccnc1Cl)c1ccccc1Cl (stereo not drawn) [Compound 1-13, (E)-(2-chlorophenyl)(2-(2-chloropyridin-3-yl)vinyl)(imino)-λ^6-sulfanone]	9.26	27.8	95.7	169	93.3	59.8	–
N=S(=O)(/C=C/c1cccc(Cl)c1)c1ccccn1 (stereo not drawn) [Compound 1-16, (E)-(3-chlorostyryl)(imino)(pyridin-2-yl)-λ^6-sulfanone]	< 3	–	–	–	–	–	–
N=S(=O)(/C=C/c1ccccc1C(F)(F)F)c1ccccn1 (stereo not drawn) [Compound 1-17, (E)-imino(pyridin-2-yl)(2-(trifluoromethyl)styryl)-λ^6-sulfanone]	< 3	–	–	–	–	–	–
N=S(=O)(/C=C/c1ccccc1OC(F)(F)F)c1ccccn1 (stereo not drawn) [Compound 1-18, (E)-imino(pyridin-2-yl)(2-(trifluoromethoxy)styryl)-λ^6-sulfanone]	< 3	–	–	–	–	–	–
N=S(=O)(/C=C/c1ccc(Cl)cc1)c1ccccn1 (stereo not drawn) [Compound 1-20, (E)-(4-chlorostyryl)(imino)(pyridin-2-yl)-λ^6-sulfanone]	20.3	–	–	–	–	–	–
C[Si](C)(C)N=S(=O)(/C=C/c1ccccc1Cl)c1ccncc1F (stereo not drawn) [Compound 1-46, (E)-(2-chlorostyryl)(3-fluoropyridin-4-yl)((trimethylsilyl)imino)-λ^6-sulfanone]	–	–	–	–	–	–	Nrf2 activation effect compared with Sulforaphane (Nrf2): better Nrf2 activation effect than Sulforaphane
N=S(=O)(/C=C/c1ncccc1F)c1ccc(OCCCN2CCOCC2)cn1 (stereo not drawn) [Compound 1-53, (E)-(2-(3-fluoropyridin-2-yl)vinyl)(imino)(5-(3-morpholinopropoxy)pyridin-2-yl)-λ^6-sulfanone]	–	–	–	–	–	–	EC50 (Nrf2): 604 nM
COc1ccccc1S(=O)(/C=C/c1ccccc1Cl)=NC#N (stereo not drawn) [Compound 1-57, (E)-N-((2-chlorostyryl)(2-methoxyphenyl)(oxo)-λ^6-sulfanylidene)cyanamide]	–	–	–	–	–	–	Nrf2 activation effect compared with Sulforaphane (Nrf2): better Nrf2 activation effect than Sulforaphane
COc1ccccc1S(=O)(/C=C/c1ncccc1Cl)=NC#N (stereo not drawn) [Compound 1-58, (E)-N-((2-(3-chloropyridin-2-yl)vinyl)(2-methoxyphenyl)(oxo)-λ^6-sulfaneylidene)cyanamide]	–	–	–	–	–	–	EC50 (Nrf2): 658 nM
COC(=O)/C=C/C(=O)OC [DMF, Dimethyl fumarate, reference compound]	16.3	–	–	–	–	–	activity at 0.1 µM [1]: 113%; activity at 1 µM [1]: 60%
C[S+]([O-])CCCCN=C=S (stereo not drawn) [Sulforaphane, 1-isothiocyanato-4-methylsulfinylbutane]	–	–	–	–	–	–	concentration at which high toxicity is exhibited [3]: ≥ 5 M
O=S(=O)(/C=C/c1ncccc1Cl)c1ccccc1F [drawing 157, reference compound]	–	16.6	86.1	45.5	95.8	105	–
O=S(=O)(/C=C/c1ncccc1Cl)c1ccccc1F [drawing 173]	–	–	–	–	–	–	Human (% remaining) [2]: 72 % remaining; Mouse (% remaining) [4]: 19 % remaining; Rat (% remaining) [5]: 23 % remaining
O=S(=O)(/C=C/c1ccccn1)c1ccccc1F [reference compound]	–	38.4	92.4	230	93	104	–
COc1ccccc1S(=O)(=O)/C=C/c1ncccc1Cl [reference compound]	–	–	–	209	–	–	–
COc1ccc(S(=O)(=O)/C=C/c2ncccc2Cl)cc1 [reference compound]	–	–	–	196	–	–	–
O=S(=O)(/C=C/c1cccnc1)c1ccccc1Cl [reference compound]	–	33.4	101	118	84	74.2	–
O=S(=O)(/C=C/c1cccnc1Cl)c1ccccc1Cl [reference compound]	–	28.3	93.8	88.7	85.6	81.2	–
O=S(=O)(/C=C/c1ncccc1Cl)c1ccccc1Cl [reference compound]	–	–	–	–	–	–	Human (% remaining) [2]: 66 % remaining; Mouse (% remaining) [4]: 4.5 % remaining
